Data on 1 molecule can be found in BindingDB's records for doi:10.1016/s0014-2999(97)01510-0 (Hospital Saint-Antoine, 1998).

In the assay the target is T1, 5'-nucleotidase (Rattus norvegicus, UniProt P21588).
T1 sequence (P21588 whole entry): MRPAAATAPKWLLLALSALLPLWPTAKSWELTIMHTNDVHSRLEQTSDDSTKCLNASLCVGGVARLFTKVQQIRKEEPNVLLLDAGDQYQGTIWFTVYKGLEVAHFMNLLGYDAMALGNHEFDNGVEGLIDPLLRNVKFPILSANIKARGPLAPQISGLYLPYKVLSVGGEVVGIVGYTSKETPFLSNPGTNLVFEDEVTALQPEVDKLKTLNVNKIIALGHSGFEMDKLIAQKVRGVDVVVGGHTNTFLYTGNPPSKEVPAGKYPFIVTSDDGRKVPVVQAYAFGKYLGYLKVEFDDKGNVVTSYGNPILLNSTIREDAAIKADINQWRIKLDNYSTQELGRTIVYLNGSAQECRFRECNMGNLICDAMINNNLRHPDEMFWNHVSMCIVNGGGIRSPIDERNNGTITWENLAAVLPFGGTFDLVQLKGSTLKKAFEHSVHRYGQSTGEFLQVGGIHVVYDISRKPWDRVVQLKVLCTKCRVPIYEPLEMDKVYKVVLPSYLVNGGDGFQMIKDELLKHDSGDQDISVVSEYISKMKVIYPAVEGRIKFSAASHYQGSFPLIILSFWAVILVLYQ

Each structure is given as a SMILES string.

Take `COc1cccc(OC)c1-c1cc(C(=O)NC2(C(=O)O)C3CC4CC(C3)CC2C4)nn1-c1ccnc2cc(Cl)ccc12` (stereo unspecified): the affinity, expressed as Ki, was 124 nM.
